Data taken from ChEMBL document CHEMBL1133104, “Polyether mimics of naturally occurring cytotoxic annonaceous acetogenins” (2000).

What follows are compounds tested on K562 (assay: Compound at 1 uM was tested in vitro to inhibit proliferation of K562 leukemia cell line).
Assay type: functional, Homo sapiens
In the case of CCCCCCCCCCCC[C@@H](O)[C@H]1CCC([C@H](O)CCCCC(=O)CCCCCCCC2=C[C@H](C)OC2=O)O1 (stereo partly specified), the IG is reported as 2%.
For CCCCCCCCCCCC[C@@H](O)[C@H]1CC[C@H]([C@H](O)CCCCCCCCCCCCC2=C[C@H](C)OC2=O)O1 [REL-SOLAMIN], the IG was 29%.
With CCCCCCCCCCCOCCOCCOCCCCC(O)CCCCCCCC1=C[C@H](C)OC1=O (stereo partly specified) the IG was 0%.
CCCCCCCCCC[C@@H](O)[C@@H]1CC[C@@H]([C@@H]2CC[C@@H]([C@H](O)CCCCCCCCCC(O)CC3=CC(C)OC3=O)O2)O1 (stereo partly specified) [BULLATACIN] gave an IG of 27%.
Work on CCCCCCCCCCOCCOCCOCCOCCCCC(O)CCCCCCCC1=C[C@H](C)OC1=O (stereo partly specified) yielded an IG of 22%.
CCCCCCCCCCCC[C@@H](O)[C@H]1CCC([C@H](O)CCCCC(O)CCCCCCCC2=C[C@H](C)OC2=O)O1 (mixture of isomers) showed an IG of 0%.

Each compound was assayed on HL-60 (assay: Compound at 1 uM was tested in vitro to inhibit proliferation of HL-60 leukemia cell line).
Assay type: functional, Homo sapiens
With CCCCCCCCCCCC[C@@H](O)[C@H]1CCC([C@H](O)CCCCC(=O)CCCCCCCC2=C[C@H](C)OC2=O)O1 (stereo partly specified) the IG was 0%.
Work on CCCCCCCCCCCC[C@@H](O)[C@H]1CC[C@H]([C@H](O)CCCCCCCCCCCCC2=C[C@H](C)OC2=O)O1 [REL-SOLAMIN] yielded an IG of 0%.
For CCCCCCCCCCCOCCOCCOCCCCC(O)CCCCCCCC1=C[C@H](C)OC1=O (stereo partly specified), the IG was 0%.
CCCCCCCCCC[C@@H](O)[C@@H]1CC[C@@H]([C@@H]2CC[C@@H]([C@H](O)CCCCCCCCCC(O)CC3=CC(C)OC3=O)O2)O1 (stereo partly specified) [BULLATACIN] was tested, and the IG was 0%.
With CCCCCCCCCCOCCOCCOCCOCCCCC(O)CCCCCCCC1=C[C@H](C)OC1=O (stereo partly specified) the IG was 21%.
Compound CCCCCCCCCCCC[C@@H](O)[C@H]1CCC([C@H](O)CCCCC(O)CCCCCCCC2=C[C@H](C)OC2=O)O1 (mixture of isomers) has an IG of 5%.

What follows are compounds tested on K562 (assay: Compound at 10 uM was tested in vitro to inhibit proliferation of K562 leukemia cell line).
Assay type: functional, Homo sapiens
CCCCCCCCCCCC[C@@H](O)[C@H]1CCC([C@H](O)CCCCC(=O)CCCCCCCC2=C[C@H](C)OC2=O)O1 (stereo partly specified) showed an IG of 16%.
CCCCCCCCCCCC[C@@H](O)[C@H]1CC[C@H]([C@H](O)CCCCCCCCCCCCC2=C[C@H](C)OC2=O)O1 [REL-SOLAMIN] showed an IG of 39%.
With CCCCCCCCCCCOCCOCCOCCCCC(O)CCCCCCCC1=C[C@H](C)OC1=O (stereo partly specified) the IG was 18%.
CCCCCCCCCC[C@@H](O)[C@@H]1CC[C@@H]([C@@H]2CC[C@@H]([C@H](O)CCCCCCCCCC(O)CC3=CC(C)OC3=O)O2)O1 (stereo partly specified) [BULLATACIN] gave an IG of 39%.
CCCCCCCCCCOCCOCCOCCOCCCCC(O)CCCCCCCC1=C[C@H](C)OC1=O (stereo partly specified) was tested, and the IG was 25%.
Compound CCCCCCCCCCCC[C@@H](O)[C@H]1CCC([C@H](O)CCCCC(O)CCCCCCCC2=C[C@H](C)OC2=O)O1 (mixture of isomers) has an IG of 2%.

The compounds below were run on K562 (assay: Compound at 100 uM was tested in vitro to inhibit proliferation of K562 leukemia cell line).
Assay type: functional, Homo sapiens
With CCCCCCCCCCCC[C@@H](O)[C@H]1CCC([C@H](O)CCCCC(=O)CCCCCCCC2=C[C@H](C)OC2=O)O1 (stereo partly specified) the IG was 53%.
Work on CCCCCCCCCCCC[C@@H](O)[C@H]1CC[C@H]([C@H](O)CCCCCCCCCCCCC2=C[C@H](C)OC2=O)O1 [REL-SOLAMIN] yielded an IG of 59%.
CCCCCCCCCCCOCCOCCOCCCCC(O)CCCCCCCC1=C[C@H](C)OC1=O (stereo partly specified) showed an IG of 31%.
Compound CCCCCCCCCC[C@@H](O)[C@@H]1CC[C@@H]([C@@H]2CC[C@@H]([C@H](O)CCCCCCCCCC(O)CC3=CC(C)OC3=O)O2)O1 (stereo partly specified) [BULLATACIN] has an IG of 53%.
CCCCCCCCCCOCCOCCOCCOCCCCC(O)CCCCCCCC1=C[C@H](C)OC1=O (stereo partly specified) gave an IG of 55%.
With CCCCCCCCCCCC[C@@H](O)[C@H]1CCC([C@H](O)CCCCC(O)CCCCCCCC2=C[C@H](C)OC2=O)O1 (mixture of isomers) the IG was 10%.

What follows are compounds tested on HL-60 (assay: Compound at 100 uM was tested in vitro to inhibit proliferation of HL-60 leukemia cell line).
Assay type: functional, Homo sapiens
CCCCCCCCCCCC[C@@H](O)[C@H]1CCC([C@H](O)CCCCC(=O)CCCCCCCC2=C[C@H](C)OC2=O)O1 (stereo partly specified) showed an IG of 68%.
CCCCCCCCCCCC[C@@H](O)[C@H]1CC[C@H]([C@H](O)CCCCCCCCCCCCC2=C[C@H](C)OC2=O)O1 [REL-SOLAMIN] gave an IG of 24%.
For CCCCCCCCCCCOCCOCCOCCCCC(O)CCCCCCCC1=C[C@H](C)OC1=O (stereo partly specified), the IG was 100%.
CCCCCCCCCC[C@@H](O)[C@@H]1CC[C@@H]([C@@H]2CC[C@@H]([C@H](O)CCCCCCCCCC(O)CC3=CC(C)OC3=O)O2)O1 (stereo partly specified) [BULLATACIN] was tested, and the IG was 73%.
CCCCCCCCCCOCCOCCOCCOCCCCC(O)CCCCCCCC1=C[C@H](C)OC1=O (stereo partly specified) gave an IG of 100%.
CCCCCCCCCCCC[C@@H](O)[C@H]1CCC([C@H](O)CCCCC(O)CCCCCCCC2=C[C@H](C)OC2=O)O1 (mixture of isomers) gave an IG of 63%.

The compounds below were run on HL-60 (assay: Compound at 10 uM was tested in vitro to inhibit proliferation of HL-60 leukemia cell line).
Assay type: functional, Homo sapiens
Compound CCCCCCCCCCCC[C@@H](O)[C@H]1CCC([C@H](O)CCCCC(=O)CCCCCCCC2=C[C@H](C)OC2=O)O1 (stereo partly specified) has an IG of 29%.
CCCCCCCCCCCC[C@@H](O)[C@H]1CC[C@H]([C@H](O)CCCCCCCCCCCCC2=C[C@H](C)OC2=O)O1 [REL-SOLAMIN] showed an IG of 8%.
CCCCCCCCCCCOCCOCCOCCCCC(O)CCCCCCCC1=C[C@H](C)OC1=O (stereo partly specified) was tested, and the IG was 50%.
CCCCCCCCCC[C@@H](O)[C@@H]1CC[C@@H]([C@@H]2CC[C@@H]([C@H](O)CCCCCCCCCC(O)CC3=CC(C)OC3=O)O2)O1 (stereo partly specified) [BULLATACIN] gave an IG of 7%.
For CCCCCCCCCCOCCOCCOCCOCCCCC(O)CCCCCCCC1=C[C@H](C)OC1=O (stereo partly specified), the IG was 65%.
Compound CCCCCCCCCCCC[C@@H](O)[C@H]1CCC([C@H](O)CCCCC(O)CCCCCCCC2=C[C@H](C)OC2=O)O1 (mixture of isomers) has an IG of 56%.
